Results from patent US5126057A, “Disinfecting with N,N'-dihaloimidazolidin-4-ones” (Auburn Research Foundation, priority 1991, dated 1992).
Read-outs that look alike come from different tables or passages of the source.

How the values were obtained:
[1] = system: Oscillatoria lutea, Anabaena cylindrica, and Chlorella pyrenoidosa; test: Algastatic effect on heavy algal growth in aquariums; assay type: cell-based; conditions: for regrowth of algae (in words): after total elapsed time of 19 days, all titratable chlorine disappeared; for Percent Total Potential Positive Chlorine Remaining: algal aquarium; for algastatic / algacidal effect (in words): extended periods, water containing heavy algal growth; for decoloration / bleaching of algae (in words): within 2 days for Cpd 1 (9.9 mg per liter Cl+), Cpd 3 at 4.9 mg per liter
Text: Two 10 gallon aquariums each containing 35 liters of Bristol's solution (described by R. C. Starr in the article "The Culture Collection of Algae at the University of Texas", J. Phycology, 14, 47 (1978)) at pH 6.8 were inoculated with a mixture of three species of algae; Oscillatoria lutea, Anabaena cylindrica, and Chlorella pyrenoidosa. The 2 aquariums were continually aerated and each illuminated by a 20 watt Gro-lux lamp placed 15 centimeters from the side of the aquarium. The experiment was conducted at ambient temperature which ranged between 21° and 24° C.
After a 34 day growth period the heavy algal cell density was measured by direct counts using a hemacytometer. The cell density in aquarium A at this time was 2.2×10^7 cells per milliliter, while that in aquarium B was 6.6×10^6 cells per milliliter. The absorbances of the two solutions at 750 nanometers were also measured at that time and found to be 0.273 for aquarium A and 0.112 for aquarium B. The absorbance at 750 nanometers has been employed as an index of algal chlorophyll concentration ("Standard methods for the Examination of Water and Wastewater", 16th edition, American Public Health Association, Washington, D.C., 1985, p. 1070). Then a solution of 1.042 grams of 1,3-dichloro-2,2,5,5-tetramethylimidazolidin-4-one (Compound 1) as prepared in example 3 in 500 milliliters of demand-free water (DFW) was added to aquarium A resulting in an initial potential positive chlorine concentration of 9.9 milligrams per liter in that aquarium. Similarly a solution of 0.872 gram of 1-chloro-2,2,5,5-tetramethylimidazolidin-4-one (Compound 3) as prepared in example 6 in 500 milliliters of DFW was added to aquarium B resulting in an initial potential positive chlorine concentration of 4.9 milligrams per liter in that aquarium. The aquariums were sampled periodically and analyzed for algal growth by means of absorbance measurements at 750 nanometers using a Milton Roy Spectronic 301 spectrophotometer and for total potential positive chlorine concentration using standard iodometric titration. […] Following the loss of all total potential positive chlorine from the aquariums, second additions of 0.87 grams of Compound 3 and of 1.042 grams of Compound 1 were made to aquariums B and A, respectively.

[2] = Stability in demand-free water exposed to direct sunlight; assay type: physicochemical; conditions: pH 7; for remaining at 3 h / remaining at 5 h / remaining at 10 h: demand-free water, direct sunlight
Experimental: The stabilities of compounds 1,5, and free chlorine from calcium hypochlorite (Compound 2) in water exposed to direct sunlight were determined. Each compound at the 10 milligrams per liter total chlorine concentration level (or at the molar equivalent for total halogen for Compound 5) was dissolved in 85 milliliters of demand-free water buffered at pH 7.0 in separate 100 milliliter beakers which were placed in a temperature-controlled water bath (22°-24° C.), and the bath containing the solutions was placed on the roof of the chemistry building at Auburn University exposed to direct sunlight during August 1988. Total potential positive halogen assays were made periodically on aliquots withdrawn over a 10 hour period using the standard iodometric titration technique.

[3] = system: Staphylococcus aureus (ATCC 25923); test: Disinfection of hard surfaces (modified AOAC Use-Dilution Method, stainless steel cylinders); assay type: cell-based; conditions: for bacterial growth after contact (in words): 25, 50, 100, 200 ppm positive chlorine (molar equivalents for Cpd 5), pH 7.0, 10 minutes contact; for minimal effective concentration: Staphylococcus aureus, ATCC25923, 10 min, 10 minutes contact, pH 7.0, read-out: effective hard surface disinfectant concentration
Experimental: The efficacies of compounds 1 and 5 as hard surface disinfectants were assessed by using a modification of the AOAC Use-Dilution Method as described in "Official Methods of Analysis of the Association of Official Analytical Chemists", ed. W. Horwitz, A.O.A.C., Washington, D.C., 1989, pp. 58-59. Small stainless steel cylinders (Penicylinders from Fisher Scientific) were cleaned with 1 Normal sodium hydroxide solution, sterilized in 0.1 percent asparagine in an autoclave, and cooled to ambient temperature. The cylinders were then inoculated with Staphylococcus aureus (ATCC 25923) by placing them in a 24 hour old nutrient broth culture of the organism for 15 minutes. The cylinders were aseptically removed from the broth, placed in a sterile petri dish upon filter paper for draining, and dried at 37° C. in an incubator for 60 minutes.
The halogenated imidazolidin-4-ones were dissolved in demand-free water buffered at pH 7.0 at concentrations of 25, 50, 100, and 200 parts per million of potential ionizable positive chlorine for Compound 1 (or molar equivalents of total potential ionizable positive halogen for Compound 5), and 2 milliliter aliquots of the solutions were added to each of a series of sterile culture tubes. Control solutions of pH 7.0 demand-free water were also added to a series of tubes. At least 10 tubes at each concentration of disinfectant were employed. Then an inoculated metal cylinder was added to each tube containing disinfectant and each control tube at exactly 30 second intervals. After exactly 10 minutes contact time the cylinders were removed from the tubes at 30 second intervals in the same order as was used for their addition, i.e. the contact time was 10 minutes for all cylinders. Each metal cylinder was placed into a culture tube containing 3 milliliters of nutrient broth and 0.01 normal sodium thiosulfate to quench disinfectant action. All tubes were examined for bacterial growth (inspected for the presence or absence of turbidity) following 48 hours of incubation at 37° C.

[4] = day 0, initial 9.9 (Cpd 1) or 4.9 (Cpd 3) mg per liter
[5] = day 6 (then additional 0.87 grams of Cpd 3 added), 8640 min
[6] = day 10 (then additional 1.042 grams of Cpd 1 added), 14400 min
[7] = day 0 (before addition), initial Cl+ 9.9 (Cpd 1) or 4.9 (Cpd 3) mg per liter
[8] = day 1, initial Cl+ 9.9 (Cpd 1) or 4.9 (Cpd 3) mg per liter
[9] = day 3, initial Cl+ 9.9 (Cpd 1) or 4.9 (Cpd 3) mg per liter
[10] = day 8, second addition of Cpd 3 at day 6
[11] = day 10, second addition of Cpd 3 at day 6, of Cpd 1 at day 10
[12] = day 19, after second additions, no titratable chlorine left

| Percent Total Potential Positive Chlorine Remaining [1, 4] | Percent Total Potential Positive Chlorine Remaining ([1]; day 1) | Percent Total Potential Positive Chlorine Remaining ([1]; day 3) | Percent Total Potential Positive Chlorine Remaining [1, 5] | Percent Total Potential Positive Chlorine Remaining ([1]; day 7) | Percent Total Potential Positive Chlorine Remaining ([1]; day 8) | Percent Total Potential Positive Chlorine Remaining [1, 6] | Percent Total Potential Positive Chlorine Remaining ([1]; day 16) | remaining at 3 h [2] | remaining at 5 h [2] | SMILES | regrowth of algae (in words) [1] | A750 (Absorbance at 750 Nanometers) [1, 7] | A750 (Absorbance at 750 Nanometers) [1, 8] | A750 (Absorbance at 750 Nanometers) [1, 9] | A750 (Absorbance at 750 Nanometers) [1, 10] | A750 (Absorbance at 750 Nanometers) [1, 11] | A750 (Absorbance at 750 Nanometers) ([1]; day 16, after second additions) | A750 (Absorbance at 750 Nanometers) [1, 12] | algastatic / algacidal effect (in words) [1] | decoloration / bleaching of algae (in words) [1] | also measured |
| --- | --- | --- | --- | --- | --- | --- | --- | --- | --- | --- | --- | --- | --- | --- | --- | --- | --- | --- | --- | --- | --- |
| 100.0% | 71.8% | 31.0% | 0.0% | 77.3% | 47.6% | 17.3% | 0.0% |  |  | CC1(C)NC(=O)C(C)(C)N1Cl [Compound 3, 1-chloro-2,2,5,5-tetramethylimidazolidin-4-one] | the algae began to grow again | 0.112 | 0.063 | 0.066 | 0.021 | 0.012 | 0.007 | 0.010 | algastatic, but not algacidal | a longer time period for decoloration |  |
|  |  |  |  |  |  |  |  | 60.5% | 45.7% | CC1(C)C(=O)N(Cl)C(C)(C)N1Br [Compound 5, 1-bromo-3-chloro-2,2,5,5-tetramethylimidazolidin-4-one] |  |  |  |  |  |  |  |  |  |  | remaining at 10 h [2]: 14.9%; stability (in words) [2]: less stable than Compound 1, but significantly more stable than free chlorine; bacterial growth after contact (in words) [3]: none of the tubes containing compounds 1 or 5 at any of the concentration levels exhibited bacterial growth; minimal effective concentration ([3]; total potential positive halogen): ≤ 40.7 µg/mL |
| 100.0% | 82.9% | 44.4% | 13.8% | 7.0% | 3.4% | 0.0% | 34.7% | 84.9% | 74.8% | CC1(C)C(=O)N(Cl)C(C)(C)N1Cl [Compound 1, 1,3-dichloro-2,2,5,5-tetramethylimidazolidin-4-one] | the algae began to grow again | 0.273 | 0.064 | 0.081 | 0.058 | 0.038 | 0.020 | 0.055 | algastatic, but not algacidal | only white turbidity resulting from the bleaching of the algae | remaining at 10 h [2]: 51.2%; stability (in words) [2]: much more stable than free chlorine; time to noticeable loss of green coloration ([1]; Cpd 1 at 9.9 mg per liter Cl+): ≤ 4 h; bacterial growth after contact (in words) [3]: none of the tubes containing compounds 1 or 5 at any of the concentration levels exhibited bacterial growth; minimal effective concentration ([3]; potential ionizable positive chlorine): ≤ 25 µg/mL |
